Laboratory results from patent US7812022B2 (GlaxoSmithKline LLC, priority 2004, dated 2010).

How the values were obtained:
ErbB2 or EGFR = target: T1, ErbB2 or EGFR; assay: ErbB family substrate phosphorylation enzyme assay (HTRF), Method A or Method B; type: biochemical
T1 construct: enzymes purified from a baculovirus expression system; Reagent production was conducted essentially as described in Brignola, P. S., et al, (2002) J. Biol. Chem. 277(2): 1576-1585
Method in brief: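 Baculovirus-expressed EGFR or ErbB2 (0.8 or 10 nM in enzyme mix) phosphorylates biotinylated Peptide C with 20 µM ATP and 0.8 µM peptide (substrate-mix levels), MnCl2, pH 7.5. Reaction ran 90 min at 20 °C with EDTA stop and HTRF anti-phosphotyrosine read. Method A: enzyme added last; Method B: 1 h enzyme–compound preincubation.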

Colo205 tumor cell lines = assay: Methylene blue growth inhibition assay (cellular Method A), Colo205; type: cell-based, Human; details: Homo sapiens, COLO 205, 72 h, 3 days, read-out: Activity (Method): growth inhibition IC50 class
Protocol: Human breast (BT474) and head and neck (HN5) were cultured in low glucose DMEM (Life Technologies 12320-032) containing 10% fetal bovine serum (FBS). Human colon tumor cells (Colo205) were cultured in DMEM (Invitrogen, 10564) containing 10% FBS. The SV40 transformed human mammary epithelial cell line HB4a was transfected with either human H-ras cDNA (HB4a r4.2) or the human c-ErbB2 cDNA (HB4a c5.2). The HB4a clones were cultured in RPMI containing 10% FBS, insulin (5 g/mL), hydrocortisone (5 g/mL), supplemented with the selection agent hygromycin B (50 g/mL). All lines were grown in a humidified incubator at 37° C. in 95% air, 5% CO2. Cells were harvested using trypsin/EDTA, counted using a haemocytometer, and plated in 100 microliters of the appropriate media, at the following densities, in a 96-well tissue culture plate (Falcon 3075): BT474 10,000 cells/well, HN5 3,000 cells/well. The next day, compounds were diluted in DMEM containing […] gentamicin, at twice the final required concentration, from 10 mM stock solutions in DMSO. 100 microliters/well of these dilutions were added to the 100 microliters of media currently on the cell plates. Medium containing 0.6% DMSO was added to control wells. Compounds diluted in DMEM were added to all cell lines. The final concentration of DMSO in all wells was 0.3%. Cells were returned to the incubator (37° C., 10% CO2) for 3 days. Medium was then removed by aspiration. Cell biomass was estimated by staining cells with 90 microliters per well methylene blue (Sigma M9140, 0.5% in 1:1 ethanol:water), and incubation at rt for at least 30 minutes. Stain was removed, and the plates rinsed by immersion in deionized water and air-dried. To release stain from the cells 100 microliters of solubilization solution was added (1% N-lauroyl sarcosine, Sodium salt, Sigma L5125, in PBS), and plates were shaken gently for about 30 minutes. Optical density at 620 nm was measured on a microplate reader. Percent inhibition of cell growth was calculated relative to vehicle treated control wells. Concentration of compound that inhibits 50% of control cell growth (IC50) was interpolated using nonlinear regression (Levenberg-Marquardt) and the equation, y=Vmax*(1−(x/(K+x)))+Y2, where “K” was equal to the IC50. Method B: Celltiter Glo® Growth Inhibition Assays

[1] = tested on: BT474 and HN5 tumor cell lines; assay: Methylene blue growth inhibition assay (cellular Method A); type: cell-based, Human; details: Homo sapiens, BT-474, 72 h, 3 days, read-out: Activity (Method): growth inhibition IC50 class
Method in brief: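 Growth inhibition measured by methylene blue staining of biomass (OD 620) after 3 days' compound exposure at 37° C, final DMSO 0.3%. Cell lines: BT474 (10,000/well), HN5 (3,000/well) and Colo205, all in DMEM with 10% FBS; IC50 fitted by nonlinear regression against vehicle-treated wells.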

[2] = Method B: enzyme mix pre-incubated with compound 1 hour at 20° C., started with substrate mix
[3] = Method A: substrate mix added first, reaction started with enzyme mix

Compound	Activity (Method): pIC50 class against ErbB2 or EGFR (ErbB2 or EGFR; [2])	IC50 (Colo205 tumor cell lines) [µM]	IC50 [1] [µM]	Activity (Method): pIC50 class against ErbB2 or EGFR (ErbB2 or EGFR; [3])
COC(=O)CCCOc1ccc(Nc2nccc(-c3c(-c4cccc(NC(=O)c5c(F)cccc5F)c4)nn4ccccc34)n2)cc1Cl [Example 162, Methyl 4-{[2-chloro-4-({4-[2-(3-{[(2,6-difluorophenyl)carbonyl]-amino}phenyl)pyrazolo[1,5-a]pyridin-3-yl]-2-pyrimidinyl}amino)phenyl]oxy}-butanoate]	++ (B) (at least one pIC50 measurement greater than 6 against either ErbB2 or EGFR but no measurement greater than pIC50 of 7)	0.1 to 1	0.1 to 1	
COc1ccc(Nc2nccc(-c3c(-c4cccc(NC(=O)c5c(F)cccc5F)c4)nn4ccccc34)n2)cc1OCCN(C)C [Example 167, N-{3-[3-(2-{[3-{[2-(Dimethylamino)ethyl]oxy}-4-(methyloxy)phenyl]amino}-4-pyrimidinyl)pyrazolo[1,5-a]pyridin-2-yl]phenyl}-2,6-difluorobenzamide]	+++ (B) (at least one pIC50 measurement of greater than 7 against either ErbB2 or EGFR)	0.1 to 1	< 0.1	
O=C(Nc1cccc(-c2nn3ccccc3c2-c2ccnc(Nc3ccccc3)n2)c1)c1ccc(Cl)cc1 [Example 142, 4-Chloro-N-(3-{3-[2-(phenylamino)-4-pyrimidinyl]pyrazolo[1,5-a]pyridin-2-yl}phenyl)benzamide]		> 1	> 1	++ (A) (at least one pIC50 measurement greater than 6 against either ErbB2 or EGFR but no measurement greater than pIC50 of 7)
O=C(NC1CC1)c1ccc(Nc2nccc(-c3c(-c4cccc(NC(=O)c5c(F)cccc5F)c4)nn4ccccc34)n2)cc1 [Example 103, N-(3-{3-[2-({4-[(cyclopropylamino)carbonyl]phenyl}-amino)-4-pyrimidinyl]pyrazolo[1,5-a]pyridin-2-yl}phenyl)-2,6-difluorobenzamide]	+++ (B) (at least one pIC50 measurement of greater than 7 against either ErbB2 or EGFR)	0.1 to 1	< 0.1	
O=C(Nc1cccc(-c2nn3ccccc3c2-c2ccnc(Nc3ccc4c(c3)CNCC4)n2)c1)c1ccccc1 [Example 62, N-(3-{3-[2-(1,2,3,4-Tetrahydro-7-isoquinolinylamino)-4-pyrimidinyl]pyrazolo[1,5-a]pyridin-2-yl}phenyl)benzamide]	+++ (B) (at least one pIC50 measurement of greater than 7 against either ErbB2 or EGFR)	> 1	< 0.1	
COc1ccc(Nc2nccc(-c3c(-c4cccc(NC(=O)c5c(F)cccc5F)c4)nn4ccccc34)n2)cc1Cl [Example 87, N-{3-[3-(2-{[3-Chloro-4-(methyloxy)phenyl]amino}-4-pyrimidinyl)pyrazolo[1,5-a]pyridin-2-yl]phenyl}-2,6-difluorobenzamide]		0.1 to 1	< 0.1	+++ (A) (at least one pIC50 measurement of greater than 7 against either ErbB2 or EGFR)
O=C1COc2cc(Nc3nccc(-c4c(-c5cccc(NC(=O)c6c(F)cccc6F)c5)nn5ccccc45)n3)ccc2N1 [Example 200, 2,6-Difluoro-N-[3-(3-{2-[(3-oxo-3,4-dihydro-2H-1,4-benzoxazin-7-yl)amino]-4-pyrimidinyl}pyrazolo[1,5-a]pyridin-2-yl)phenyl]benzamide]	+++ (B) (at least one pIC50 measurement of greater than 7 against either ErbB2 or EGFR)	0.1 to 1	< 0.1	
O=C(Nc1cccc(-c2nn3ccccc3c2-c2ccnc(Nc3ccc(-c4cc[nH]n4)cc3)n2)c1)c1c(F)cccc1F [Example 101, 2,6-Difluoro-N-{3-[3-(2-{[4-(1H-pyrazol-3-yl)phenyl]amino}-4-pyrimidinyl)pyrazolo[1,5-a]pyridin-2-yl]phenyl}benzamide]		> 1	0.1 to 1	
CN(C)C1Cc2ccc(Nc3nccc(-c4c(-c5cccc(NC(=O)c6c(F)cccc6F)c5)nn5ccccc45)n3)cc2C1 (centres unmarked) [Example 176, N-{3-[3-(2-{[2-(Dimethylamino)-2,3-dihydro-1H-inden-5-yl]amino}-4-pyrimidinyl)pyrazolo[1,5-a]pyridin-2-yl]phenyl}-2,6-difluorobenzamide]		0.1 to 1	< 0.1	
NC(=O)c1ccc(Nc2nccc(-c3c(-c4cccc(NC(=O)c5c(F)cccc5F)c4)nn4ccccc34)n2)cc1 [Example 104, N-{3-[3-(2-{[4-(Aminocarbonyl)phenyl]amino}-4-pyrimidinyl)pyrazolo[1,5-a]pyridin-2-yl]phenyl}-2,6-difluorobenzamide-ethane (1:1)]		0.1 to 1	< 0.1	
N#Cc1cccc(Nc2nccc(-c3c(-c4cccc(NC(=O)c5cc(F)ccc5F)c4)nn4ccccc34)n2)c1 [Example 48, N-[3-(3-{2-[(3-Cyanophenyl)amino]-4-pyrimidinyl}pyrazolo[1,5-a]pyridin-2-yl)phenyl]-2,5-difluorobenzamide]			< 0.1	+++ (A) (at least one pIC50 measurement of greater than 7 against either ErbB2 or EGFR)
O=C(Nc1cccc(-c2nn3ccccc3c2-c2ccnc(Nc3ccc(Cl)cc3)n2)c1)c1c(F)cccc1F [Example 92]			0.1 to 1	++ (A) (at least one pIC50 measurement greater than 6 against either ErbB2 or EGFR but no measurement greater than pIC50 of 7)
O=C(Nc1cccc(-c2nn3ccccc3c2-c2ccnc(Nc3cccc(F)c3)n2)c1)c1ccnc(Cl)c1 [Example 73, 2-Chloro-N-[3-(3-{2-[(3-fluorophenyl)amino]-4-pyrimidinyl}pyrazolo[1,5-a]pyridin-2-yl)phenyl]-4-pyridinecarboxamide]	++ (B) (at least one pIC50 measurement greater than 6 against either ErbB2 or EGFR but no measurement greater than pIC50 of 7)		> 1	
O=C(Nc1cccc(-c2nn3ccccc3c2-c2ccnc(Nc3ccc(N4CCOCC4)cc3)n2)c1)c1c(F)cccc1F [Example 27, 2,6-Difluoro-N-{3-[3-(2-{[4-(4-morpholinyl)phenyl]amino}-4-pyrimidinyl)pyrazolo[1,5-a]pyridin-2-yl]phenyl}benzamide]	++ (B) (at least one pIC50 measurement greater than 6 against either ErbB2 or EGFR but no measurement greater than pIC50 of 7)		< 0.1	
O=C(Nc1cccc(-c2nn3ccccc3c2-c2ccnc(Nc3ccccc3)n2)c1)c1cccnc1 [Example 138, N-{3-[3-(2-Phenylamino-pyrimidin-4-yl)-pyrazolo[1,5-a]pyridin-2-yl]-phenyl}-nicotinamide]			0.1 to 1	+++ (A) (at least one pIC50 measurement of greater than 7 against either ErbB2 or EGFR)
O=C(Nc1cccc(-c2nn3ccccc3c2-c2ccnc(Nc3cccc(F)c3)n2)c1)c1cnc2ccccc2n1 [Example 24, N-[3-(3-{2-[(3-Fluorophenyl)amino]-4-pyrimidinyl}pyrazolo[1,5-a]pyridin-2-yl)phenyl]-2-quinoxalinecarboxamide]	+ (B) (no pIC50 measurement greater than 6 against either ErbB2 or EGFR)		> 1	
O=C(Nc1cccc(-c2nn3ccccc3c2-c2ccnc(Nc3cccc(F)c3)n2)c1)c1cccnc1 [Example 66, N-[3-(3-{2-[(3-fluorophenyl)amino]-4-pyrimidinyl}pyrazolo[1,5-a]pyridin-2-yl)phenyl]-3-pyridinecarboxamide]	++ (B) (at least one pIC50 measurement greater than 6 against either ErbB2 or EGFR but no measurement greater than pIC50 of 7)		0.1 to 1	
